Data from PubChem BioAssay (NCI).
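The compound was tested at five concentrations on cells cultured in 96-well plates, with a 48-hour exposure period. Abbreviation: GI50, concentration required for 50% inhibition of growth. Definition used: TGI = concentration required for complete inhibition of growth.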

Experiments:
Experiment in all cases: NCI-60 cell line screen, 48 h
[1] = tested on: LOX IMVI melanoma
[2] = tested on: SK-MEL-5 melanoma
[3] = tested on: RXF 393 renal
[4] = tested on: OVCAR-3 ovarian
[5] = tested on: CCRF-CEM leukemia
[6] = tested on: HOP-92 NSCLC
[7] = tested on: 786-0 renal
[8] = tested on: RPMI-8226 leukemia
[9] = tested on: HT29 colon
[10] = tested on: SN12C renal
[11] = tested on: HCC-2998 colon
[12] = tested on: M14 melanoma
[13] = tested on: SK-MEL-2 melanoma
[14] = tested on: SNB-75 CNS
[15] = tested on: EKVX NSCLC
[16] = tested on: HL-60(TB) leukemia
[17] = tested on: UACC-257 melanoma
[18] = tested on: NCI-H460 lung
[19] = tested on: K-562 leukemia
[20] = tested on: SF-268 CNS
[21] = tested on: HCT-116 colon
[22] = tested on: NCI-H522 lung
[23] = tested on: SK-MEL-28 melanoma
[24] = tested on: PC-3 prostate
[25] = tested on: SNB-19 CNS
[26] = tested on: MOLT-4 leukemia
[27] = tested on: NCI-H23 lung
[28] = tested on: T-47D breast
[29] = tested on: HS 578T breast
[30] = tested on: KM12 colon
[31] = tested on: BT-549 breast
[32] = tested on: HOP-62 NSCLC
[33] = tested on: CAKI-1 renal
[34] = tested on: NCI-H226 lung
[35] = tested on: MDA-MB-231 breast
[36] = tested on: SW-620 colon
[37] = tested on: U251 CNS
[38] = tested on: SR leukemia
[39] = tested on: OVCAR-8 ovarian
[40] = tested on: SF-295 CNS
[41] = tested on: MDA-MB-435
[42] = tested on: OVCAR-4 ovarian
[43] = tested on: A498 renal
[44] = tested on: IGROV1 ovarian
[45] = tested on: SF-539 CNS
[46] = tested on: HCT-15 colon
[47] = tested on: UO-31 renal
[48] = tested on: UACC-62 melanoma
[49] = tested on: DU-145 prostate
[50] = tested on: COLO 205 colon
[51] = tested on: MALME-3M melanoma
[52] = tested on: MCF7 breast
[53] = tested on: A549 NSCLC
[54] = tested on: TK-10 renal
[55] = tested on: NCI/ADR-RES ovarian
[56] = tested on: SK-OV-3 ovarian
[57] = tested on: OVCAR-5 ovarian
[58] = tested on: ACHN renal

## COc1ccc(-c2cn(-c3cccc(C(=O)/C=C/c4cc(OC)c(OC)c(OC)c4)c3)c(=O)[nH]2)cc1
[1]
  GI50: 0.725 µM
  TGI: 2.3 µM
[2]
  GI50: 2.03 µM
  TGI: 5.25 µM
[3]
  GI50: 1.92 µM
  TGI: 3.75 µM
[4]
  GI50: 1.78 µM
  TGI: 4.23 µM
[5]
  GI50: 1.74 µM
  TGI: > 100 µM
[6]
  GI50: 14.9 µM
  TGI: 67.2 µM
[7]
  GI50: 1.61 µM
  TGI: 3.25 µM
[8]
  GI50: 0.924 µM
  TGI: > 100 µM
[9]
  GI50: 1.28 µM
  TGI: 2.58 µM
[10]
  GI50: 3.5 µM
  TGI: 18.5 µM
[11]
  GI50: 1.64 µM
  TGI: 3 µM
[12]
  GI50: 1.85 µM
  TGI: 5.21 µM
[13]
  GI50: 2.63 µM
  TGI: 7.41 µM
[14]
  GI50: 4.59 µM
  TGI: 17 µM
[15]
  GI50: 4.2 µM
  TGI: > 100 µM
[16]
  GI50: 4.28 µM
  TGI: > 100 µM
[17]
  GI50: 3.04 µM
  TGI: 12.1 µM
[18]
  GI50: 1.56 µM
  TGI: 3.14 µM
[19]
  GI50: 1.27 µM
  TGI: > 100 µM
[20]
  GI50: 3.21 µM
  TGI: 10.6 µM
[21]
  GI50: 0.371 µM
  TGI: 1.38 µM
[22]
  GI50: 1.85 µM
  TGI: 4.39 µM
[23]
  GI50: 2.03 µM
  TGI: 4.04 µM
[24]
  GI50: 6.22 µM
  TGI: 39 µM
[25]
  GI50: 4.38 µM
  TGI: 15.8 µM
[26]
  GI50: 3.48 µM
  TGI: > 100 µM
[27]
  GI50: 1.63 µM
  TGI: 4.35 µM
[28]
  GI50: 3.84 µM
  TGI: 22.4 µM
[29]
  GI50: 3.39 µM
  TGI: 25.6 µM
[30]
  GI50: 1.42 µM
  TGI: 2.75 µM
[31]
  GI50: 2.59 µM
  TGI: 8.92 µM
[32]
  GI50: 5.91 µM
  TGI: 18.1 µM
[33]
  GI50: 3.05 µM
  TGI: 13.2 µM
[34]
  GI50: 35.2 µM
  TGI: > 100 µM
[35]
  GI50: 5.48 µM
  TGI: 25.4 µM
[36]
  GI50: 0.452 µM
  TGI: 1.61 µM
[37]
  GI50: 0.888 µM
  TGI: 3.25 µM
[38]
  GI50: 0.85 µM
  TGI: > 100 µM
[39]
  GI50: 2.53 µM
  TGI: 15.3 µM
[40]
  GI50: 4.95 µM
  TGI: 22 µM
[41]
  GI50: 1.86 µM
  TGI: 7.49 µM
[42]
  GI50: 3.57 µM
  TGI: > 100 µM
[43]
  GI50: 4.21 µM
  TGI: 14.5 µM
[44]
  GI50: 2.58 µM
  TGI: 7.42 µM
[45]
  GI50: 2 µM
  TGI: 4.09 µM
[46]
  GI50: 1.38 µM
  TGI: 4.7 µM
[47]
  GI50: 1.91 µM
  TGI: 6.73 µM
[48]
  GI50: 2.06 µM
  TGI: 4.85 µM
[49]
  GI50: 2.61 µM
  TGI: 8.76 µM
[50]
  GI50: 1.84 µM
  TGI: 3.89 µM
[51]
  GI50: 1.79 µM
  TGI: 6.24 µM
[52]
  GI50: 0.444 µM
  TGI: 3.45 µM
[53]
  GI50: 11.8 µM
  TGI: > 100 µM
[54]
  GI50: 3.04 µM
  TGI: 9.97 µM
[55]
  GI50: 1.7 µM
  TGI: 4.67 µM
[56]
  GI50: 4.6 µM
  TGI: 61.2 µM
[57]
  GI50: 2.64 µM
  TGI: 5.51 µM

## Cc1cnc(NC2CCOCC2)nc1-n1cnc(C(=O)N[C@H](CN)c2cc(F)cc(Cl)c2)c1
[1]
  GI50: 0.0441 µM
  TGI: 5.88 µM
[2]
  GI50: 0.388 µM
  TGI: 12.9 µM
[3]
  GI50: 0.101 µM
  TGI: 2.42 µM
[4]
  GI50: 1.94 µM
  TGI: 22.2 µM
[5]
  GI50: 2.4 µM
  TGI: 24.5 µM
[6]
  GI50: 0.023 µM
  TGI: 2.12 µM
[7]
  GI50: 1.49 µM
  TGI: 20 µM
[8]
  GI50: 7.45 µM
  TGI: 30.4 µM
[9]
  GI50: 0.0128 µM
  TGI: > 35.4 µM
[10]
  GI50: 2.27 µM
  TGI: > 52.1 µM
[11]
  GI50: 0.018 µM
  TGI: 11.6 µM
[12]
  GI50: 0.0193 µM
  TGI: 2.38 µM
[13]
  GI50: 0.0186 µM
  TGI: 0.531 µM
[14]
  GI50: 0.103 µM
  TGI: 8.84 µM
[15]
  GI50: 0.427 µM
  TGI: 20.2 µM
[16]
  GI50: 0.0196 µM
  TGI: 1.83 µM
[18]
  GI50: 1.05 µM
  TGI: 17.9 µM
[19]
  GI50: 0.783 µM
  TGI: 14.5 µM
[20]
  GI50: 1.86 µM
  TGI: 23.2 µM
[21]
  GI50: 0.0177 µM
  TGI: 12.4 µM
[22]
  GI50: 8.23 µM
  TGI: 30.5 µM
[23]
  GI50: 0.0203 µM
  TGI: 13.5 µM
[24]
  GI50: 4.36 µM
  TGI: 38.5 µM
[25]
  GI50: 13.9 µM
  TGI: > 57.8 µM
[26]
  GI50: 1.59 µM
  TGI: 9.79 µM
[58]
  GI50: 1.64 µM
  TGI: 28 µM
[27]
  GI50: 0.0201 µM
  TGI: 16.5 µM
[28]
  GI50: 13.6 µM
  TGI: 46.6 µM
[29]
  GI50: 0.871 µM
  TGI: 15.8 µM
[30]
  GI50: 0.0814 µM
  TGI: 30.1 µM
[31]
  GI50: 5.02 µM
  TGI: 17.2 µM
[32]
  GI50: 0.154 µM
  TGI: 20.9 µM
[33]
  GI50: 0.237 µM
  TGI: 5.34 µM
[34]
  GI50: 1.36 µM
  TGI: 10.9 µM
[35]
  GI50: 0.0999 µM
  TGI: > 30.6 µM
[36]
  GI50: 0.0383 µM
  TGI: 14.3 µM
[37]
  GI50: 1.54 µM
  TGI: 22.9 µM
[38]
  GI50: 1.14 µM
  TGI: 16.5 µM
[39]
  GI50: 3.48 µM
  TGI: 42.6 µM
[40]
  GI50: 2.8 µM
  TGI: 17.3 µM
[41]
  GI50: 0.0638 µM
  TGI: 16.4 µM
[42]
  GI50: 0.506 µM
  TGI: 53.5 µM
[43]
  GI50: 0.0508 µM
  TGI: 0.462 µM
[44]
  GI50: 0.0702 µM
  TGI: 13 µM
[45]
  GI50: 2.93 µM
  TGI: 17.4 µM
[46]
  GI50: 3.06 µM
  TGI: 34.3 µM
[47]
  GI50: 0.903 µM
  TGI: 5.43 µM
[48]
  GI50: 0.0102 µM
  TGI: 5.57 µM
[49]
  GI50: 2.34 µM
  TGI: 82.8 µM
[50]
  GI50: < 0.01 µM
  TGI: 14.2 µM
[51]
  GI50: < 0.01 µM
  TGI: 0.0157 µM
[52]
  GI50: 1.58 µM
  TGI: 15.4 µM
[53]
  GI50: 0.216 µM
  TGI: 30.5 µM
[54]
  GI50: 0.113 µM
  TGI: 23 µM
[55]
  GI50: 19.8 µM
  TGI: > 91.9 µM
[56]
  GI50: 0.523 µM
  TGI: 8.17 µM
[57]
  GI50: 0.0269 µM
  TGI: > 82.8 µM
